Test systems include 786-0; ACHN; CCRF-CEM; COLO 205; HCT-15; HL-60; HT-29; KM12; NCI-H522; OVCAR-4; OVCAR-5; OVCAR-8; SF-539; SK-MEL-28; SNB-19; T47D; TK-10; U-251; UACC-257; UO-31.
Common to all, as to experiment: growth of human tumour cells (NCI), 48 h

Molecules are shown by their SMILES.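 Step 1: Grow cells in 96-well plates. Step 2: Expose to compound for 48 hours at 5 concentrations. Step 3: Interpolate endpoints linearly; if unreached, use highest concentration. GI50 is the concentration that inhibits growth by half.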 Activity calls are given as the source filed them. No stated cut-off is given here; in the data, active = GI50 up to about 1.1 µM and inactive = higher.

Regarding `Cc1ccc(NCCN(C)C)c2c(=O)c3cc(O)ccc3oc12`, the GI50 in the experiment on 786-0 was 5.24 µM (inactive); with ACHN it was 4.62 µM (inactive); in the experiment with CCRF-CEM, 2.28 µM (inactive); in the experiment with COLO 205 it was 10.8 µM (inactive); in the experiment with HCT-15, 9.08 µM; with HL-60, 2.29 µM (inactive). Moreover, the GI50 was 11.2 µM (inactive) in the experiment with HT-29; 11.2 µM (inactive) in the experiment on KM12; 8.15 µM (inactive) in the experiment with NCI-H522; 17 µM (inactive) in the experiment with OVCAR-4; 15.5 µM (inactive) in the experiment on OVCAR-5; 6.97 µM (inactive) in the experiment on OVCAR-8. Besides, the GI50 is 8.28 µM (inactive) with SF-539; 14.8 µM (inactive) in the experiment with SK-MEL-28; 11.3 µM (inactive) in the experiment on SNB-19; 16.5 µM (inactive) in the experiment with T47D; 14.6 µM (inactive) with TK-10; 8.2 µM (inactive) with U-251. In addition, the GI50 in the experiment with UACC-257 is 18.3 µM (inactive); in the experiment on UO-31 it was 9.2 µM (inactive).

Take `CCN(CC)C(=O)N1CN(c2ccccc2)C2(CCN(CCCSc3ccc(F)cc3)CC2)C1=O`: the GI50 with 786-0 was 12.8 µM (inactive); in the experiment with ACHN it was 3.01 µM (inactive); in the experiment with CCRF-CEM, 4.2 µM (inactive); in the experiment on COLO 205, 1.92 µM (inactive); in the experiment with HCT-15, 11 µM; in the experiment on HL-60, 5.37 µM (inactive). The GI50 with HT-29 was 2.85 µM (inactive); in the experiment on KM12 it was 10.2 µM (inactive); in the experiment with NCI-H522, 13.2 µM (inactive); in the experiment on OVCAR-4, 6.75 µM (inactive); with OVCAR-5, 14.3 µM (inactive); in the experiment on OVCAR-8 it was 15.1 µM (inactive). The GI50 in the experiment on SF-539 was 8.34 µM (inactive); with SK-MEL-28, 18.4 µM (inactive); with SNB-19, 9.79 µM (inactive); in the experiment on T47D, 4.01 µM (inactive); with TK-10 it was 10.3 µM (inactive); with U-251 it was 11.9 µM (inactive). Besides, the GI50 is 3.32 µM (inactive) in the experiment with UACC-257 and 7.19 µM (inactive) in the experiment with UO-31.

`C[C@@H]1[C@H](C)N1CC(O)Cn1ccnc1[N+](=O)[O-]` (stereo not given in full): the GI50 in the experiment on 786-0 is > 100 µM (inactive); in the experiment on ACHN, > 100 µM (inactive); in the experiment with CCRF-CEM it was > 100 µM (inactive); with COLO 205 it was > 100 µM (inactive); with HCT-15 it was greater than 100 µM; with HL-60, > 100 µM (inactive). For the same compound, the GI50 with HT-29, with KM12, with NCI-H522, in the experiment on OVCAR-4, in the experiment with OVCAR-5 and in the experiment on OVCAR-8 was > 100 µM (inactive) each time. The GI50 in the experiment on SF-539, with SK-MEL-28, in the experiment with SNB-19, in the experiment with T47D, in the experiment on TK-10 and in the experiment with U-251 was > 100 µM (inactive) each time. Also, the GI50 with UACC-257 and in the experiment on UO-31 was > 100 µM (inactive) throughout.

Consider `N=C(N)N/N=C/c1c(-c2ccc(Cl)c([N+](=O)[O-])c2)nc2sccn12`, for which the GI50 in the experiment with 786-0 is 1.73 µM (inactive); in the experiment with ACHN, 1.71 µM (inactive); in the experiment with CCRF-CEM it was 1.41 µM (inactive); with COLO 205, 1.31 µM (inactive); in the experiment on HCT-15 it was 2.21 µM; in the experiment with HL-60, 1.96 µM (inactive). Besides, the GI50 in the experiment with HT-29 is 1.52 µM (inactive); in the experiment on KM12 it was 0.861 µM (active); in the experiment with NCI-H522 it was 2.01 µM (inactive); in the experiment with OVCAR-4, 1.79 µM (inactive); in the experiment with OVCAR-5, 1.71 µM (inactive); in the experiment on OVCAR-8, 2.11 µM (inactive). Also, the GI50 in the experiment with SF-539 is 1.82 µM (inactive); in the experiment with SK-MEL-28, 4.08 µM (inactive); in the experiment on SNB-19, 1.31 µM (inactive); in the experiment with T47D it was 0.493 µM (active); in the experiment on TK-10, 1.76 µM (inactive); with U-251 it was 1.67 µM (inactive). Further, the GI50 with UACC-257 is 1.91 µM (inactive); with UO-31, 1.85 µM (inactive).

For the compound `Cc1cc(CCC(=O)NCCNc2c3ccccc3nc3ccccc23)cc(C)c1O[Si](C)(C)C(C)(C)C`, the GI50 with 786-0 is 0.39 µM (active); in the experiment with ACHN, 1.66 µM (inactive); in the experiment with CCRF-CEM, 0.38 µM (active); with COLO 205, 1.03 µM (active); with HCT-15, 0.282 µM; in the experiment with HL-60, 1.52 µM (inactive). For the same compound, the GI50 is 0.446 µM (active) with HT-29; 0.366 µM (active) in the experiment with KM12; 1.73 µM (inactive) in the experiment on NCI-H522; 1.32 µM (inactive) in the experiment with OVCAR-4; 1.69 µM (inactive) with OVCAR-5; 1.47 µM (inactive) in the experiment with OVCAR-8. Also, the GI50 in the experiment on SF-539 is 0.194 µM (active); in the experiment on SK-MEL-28, 1.92 µM (inactive); in the experiment on SNB-19, 1.85 µM (inactive); with T47D, 0.351 µM (active); with TK-10, 1.63 µM (inactive); with U-251, 0.312 µM (active). The GI50 was 2.01 µM (inactive) with UACC-257 and 1.83 µM (inactive) with UO-31.

As for `Cc1ccc(S(=O)(=O)NC(=O)Nc2nc[nH]n2)cc1`, the GI50 is > 100 µM (inactive) in the experiment on 786-0; > 100 µM (inactive) in the experiment with ACHN; > 100 µM (inactive) in the experiment with CCRF-CEM; > 100 µM (inactive) in the experiment with COLO 205; greater than 100 µM with HCT-15; > 100 µM (inactive) in the experiment with HL-60. Moreover, the GI50 with HT-29, in the experiment with KM12, in the experiment with NCI-H522, in the experiment with OVCAR-4, in the experiment with OVCAR-5 and with OVCAR-8 was > 100 µM (inactive) throughout. Besides, the GI50 with SF-539, in the experiment on SK-MEL-28, in the experiment with SNB-19, in the experiment on T47D, with TK-10 and with U-251 was > 100 µM (inactive) each time. Further, the GI50 in the experiment with UACC-257 and in the experiment with UO-31 was > 100 µM (inactive) in each case.

For the compound `O=c1[nH]nc(-c2ccccc2)n1/N=C/c1c[nH]c2ccccc12`, the GI50 in the experiment on 786-0 is 56.2 µM (inactive); in the experiment with ACHN it was > 100 µM (inactive); in the experiment on CCRF-CEM, > 100 µM (inactive); with COLO 205 it was > 100 µM (inactive); with HCT-15 it was greater than 100 µM; in the experiment on HL-60 it was > 100 µM (inactive). Besides, the GI50 was 41 µM (inactive) with HT-29; 5 µM (inactive) in the experiment with KM12; > 100 µM (inactive) with NCI-H522; > 100 µM (inactive) in the experiment on OVCAR-4; > 100 µM (inactive) in the experiment with OVCAR-5; 32.7 µM (inactive) in the experiment on OVCAR-8. Further, the GI50 in the experiment on SF-539 is > 100 µM (inactive); in the experiment on SK-MEL-28 it was > 100 µM (inactive); in the experiment on SNB-19, > 100 µM (inactive); with T47D, > 100 µM (inactive); with TK-10, 17.6 µM (inactive); with U-251 it was > 100 µM (inactive). For the same compound, the GI50 in the experiment with UACC-257 and in the experiment with UO-31 was > 100 µM (inactive) in each case.

Consider `Cc1ccc2cccc(-c3cccc4ccccc34)c2n1`, for which the GI50 is 27.4 µM (inactive) with 786-0; 24.4 µM (inactive) in the experiment on ACHN; 19.8 µM (inactive) with CCRF-CEM; 23.7 µM (inactive) in the experiment with COLO 205; 21.7 µM in the experiment with HCT-15; 3.33 µM (inactive) with HL-60. Besides, the GI50 in the experiment with HT-29 is 20.7 µM (inactive); with KM12 it was 15 µM (inactive); in the experiment with NCI-H522, 23.7 µM (inactive); with OVCAR-4, 24.9 µM (inactive); with OVCAR-5, 18.3 µM (inactive); with OVCAR-8, 22.1 µM (inactive). The GI50 is 24 µM (inactive) in the experiment on SF-539; 26.6 µM (inactive) in the experiment on SK-MEL-28; 46.9 µM (inactive) in the experiment with SNB-19; 15.8 µM (inactive) in the experiment on T47D; 11.3 µM (inactive) in the experiment with TK-10; 12.7 µM (inactive) with U-251. The GI50 in the experiment on UACC-257 is 29.9 µM (inactive); in the experiment with UO-31, 14.3 µM (inactive).

As for `OC1CC2CCC(C1)N2CCCN1c2ccccc2Sc2ccc(Cl)cc21` (stereo not given), the GI50 was 1.83 µM (inactive) in the experiment on 786-0; 2.23 µM (inactive) in the experiment with ACHN; 1.94 µM (inactive) in the experiment on CCRF-CEM; 1.77 µM (inactive) in the experiment on COLO 205; 2.49 µM in the experiment on HCT-15; 2.26 µM (inactive) in the experiment on HL-60. The GI50 with HT-29 was 1.67 µM (inactive); in the experiment with KM12, 1.95 µM (inactive); in the experiment with NCI-H522, 1.99 µM (inactive); in the experiment on OVCAR-4 it was 3.69 µM (inactive); with OVCAR-5 it was 2.82 µM (inactive); in the experiment on OVCAR-8, 2.11 µM (inactive). The GI50 was 1.84 µM (inactive) in the experiment on SF-539; 1.81 µM (inactive) in the experiment with SK-MEL-28; 3.88 µM (inactive) in the experiment on SNB-19; 2.23 µM (inactive) in the experiment on T47D; 1.66 µM (inactive) with TK-10; 1.87 µM (inactive) in the experiment with U-251. The results for the GI50 in the experiment on UACC-257 and in the experiment with UO-31 were 1.29 µM (inactive) and 2.46 µM (inactive), respectively.

With `CC[C@@]1(OC(=O)C(N)CCCCN)C(=O)OCc2c1cc1n(c2=O)Cc2cc3ccccc3nc2-1` (stereo not given in full), the GI50 with 786-0 was 0.0148 µM (active); in the experiment with ACHN, 0.0135 µM (active); in the experiment with CCRF-CEM it was < 0.01 µM (active); in the experiment with COLO 205, 0.389 µM (active); in the experiment on HCT-15, 0.248 µM; with HL-60 it was < 0.0132 µM (active). In addition, the GI50 in the experiment on HT-29 was 0.133 µM (active); in the experiment on KM12, 0.35 µM (active); in the experiment on NCI-H522, 0.0454 µM (active); in the experiment on OVCAR-4 it was 0.332 µM (active); in the experiment with OVCAR-5, 0.238 µM (active); in the experiment with OVCAR-8, 0.0502 µM (active). Besides, the GI50 in the experiment with SF-539 was 0.0203 µM (active); in the experiment with SK-MEL-28, 0.442 µM (active); in the experiment on SNB-19, 0.0176 µM (active); in the experiment with T47D, 0.0326 µM (active); with TK-10, 2.55 µM (inactive); in the experiment on U-251, 0.0161 µM (active). For the same compound, the GI50 in the experiment with UACC-257 is 0.143 µM (active); in the experiment on UO-31 it was 0.0263 µM (active).
